Data on 22 molecules can be found in US8309721B2, “HSP90 inhibitory carbazole derivatives, compositions containing same and use thereof” (Sanofi, priority 2008, dated 2012).

One may read the IC50 as the concentration that inhibits the measured activity by half.

Test [1] has as its target Hsp82 (Saccharomyces cerevisiae, UniProt P02829). The experiment in a line: Hsp82/ATPase test (malachite green or PK/LDH coupled method). It counts as biochemical. The conditions noted are these: 1 μM Hsp82, 250 μM ATP, 37° C.; read-out: Hsp82 ATPase IC50. As to the method:
The biochemical activity of the compounds can in particular be evaluated by means of the “Hsp82/ATPase” test described below: The inorganic phosphate released during the hydrolysis of ATP by the ATPase activity of Hsp82 is quantified by the malachite green method. In the presence of this reagent, formation of the inorganic phosphate-molybdate-malachite green complex, which absorbs at a wavelength of 620 nm, occurs. The products to be evaluated are incubated in a reaction volume of 30 μl, in the presence of 1 μM Hsp82 and of 250 μM of substrate (ATP) in a buffer composed of 50 mM Hepes-NaOH (pH 7.5), 1 mM DTT, 5 mM MgCl2 and 50 mM KCl at 37° C. for 60 min. In parallel, an inorganic phosphate range of between 1 and 40 μM is made up in the same buffer. […] After incubation at ambient temperature for 20 min, the absorbance of the various wells is measured using a microplate reader at 620 nm. The inorganic phosphate concentration of each sample is then calculated from the standard curve. The ATPase activity of Hsp82 is expressed as concentration of inorganic phosphate produced in 60 minutes. The effect of the various products tested is expressed as percentage inhibition of the ATPase activity. The formation of ADP due to the ATPase activity of Hsp82 was used to develop another method for evaluating the enzyme activity of this enzyme by application of an enzymatic coupling system involving pyruvate kinase (PK) and lactate dehydrogenase (LDH). In this kinetic-type spectrophotometric method, PK catalyses the formation of ATP and of pyruvate from phosphoenol pyruvate (PEP) and the ADP produced by Hsp82. The pyruvate formed, which is a substrate for LDH, is subsequently converted to lactate in the presence of NADH. In this case, the decrease in the NADH concentration, measured through the decrease in absorbance at the wavelength of 340 nm, is proportional to the concentration of ADP produced by Hsp82. The products tested are incubated in a reaction volume of 100 μl of buffer composed of 100 mM Hepes-NaOH (pH 7.5), 5 mM MgCl2, 1 mM DTT, 150 mM KCl, 0.3 mM NADH, 2.5 mM PEP and 250 μM ATP. This mixture is preincubated at 37° C. for 30 minutes before the addition of 3.77 units of LDH and 3.77 units of PK. The reaction is initiated by addition of the product to be evaluated, in varying concentrations, and of Hsp82, at the concentration of 1 μM. The enzymatic activity of Hsp82 is then measured continuously, in a microplate reader, at 37° C., at the wavelength of 340 nm. The initial rate of the reaction is obtained by measuring the slope of the tangent to the origin of the curve recorded. The enzymatic activity is expressed in μM of ADP formed per minute. The effect of the various products tested is expressed as percentage inhibition of the ATPase activity according to the codification below: […]

For test [2], the system named is Her2 receptor expression at the surface of SKBr3 cells. The test is described as follows: phenotypic SKBr3/HER2 cell test (Her2 surface expression by flow cytometry). It counts as cell-based. The conditions noted are these: Homo sapiens, SK-BR-3, 24 h incubation, inhibition of Her2 expression. As to the method: The cellular activity of the compounds can in particular be evaluated by means of the phenotypic “SKBr3/HER2” cell test described below:
The SKBr3 […] adenocarcinoma cells, overexpressing the Her2 tyrosine kinase receptor, originate from the ATCC (HTB-30) and are cultured in McCoy's 5A medium supplemented with 10% FBS and 1% L-glutamine.
The cells are seeded in 12-well plates at a proportion of 125 000 cells per well in 1 ml of complete medium. The following day, the products are added at varying concentrations. After incubation for 24 h, the cells are trypsinized, washed with PBS and incubated with 100 ng of anti-Her2 antibody coupled to PE (Phycoerythrin) (BD 340552) for 30 minutes at 4° C. in the dark. The fluorescence due to the expression of the Her2 receptor at the surface of the cells is then read using a FACS Calibur flow cytometer (Becton-Dickinson). The percentage inhibition of Her2 expression as a function of the concentrations of product tested is fitted by the nonlinear regression technique (XLfit, equation 205) in order to measure an IC50 for each product.
On the technique in general: A flow cytometer gives signals particle by particle.

Structures can show the parent of a compound that is named as a salt. A value given as a limit tells only on which side of the number the result lay.

Chain of Hsp82 (P02829 whole entry): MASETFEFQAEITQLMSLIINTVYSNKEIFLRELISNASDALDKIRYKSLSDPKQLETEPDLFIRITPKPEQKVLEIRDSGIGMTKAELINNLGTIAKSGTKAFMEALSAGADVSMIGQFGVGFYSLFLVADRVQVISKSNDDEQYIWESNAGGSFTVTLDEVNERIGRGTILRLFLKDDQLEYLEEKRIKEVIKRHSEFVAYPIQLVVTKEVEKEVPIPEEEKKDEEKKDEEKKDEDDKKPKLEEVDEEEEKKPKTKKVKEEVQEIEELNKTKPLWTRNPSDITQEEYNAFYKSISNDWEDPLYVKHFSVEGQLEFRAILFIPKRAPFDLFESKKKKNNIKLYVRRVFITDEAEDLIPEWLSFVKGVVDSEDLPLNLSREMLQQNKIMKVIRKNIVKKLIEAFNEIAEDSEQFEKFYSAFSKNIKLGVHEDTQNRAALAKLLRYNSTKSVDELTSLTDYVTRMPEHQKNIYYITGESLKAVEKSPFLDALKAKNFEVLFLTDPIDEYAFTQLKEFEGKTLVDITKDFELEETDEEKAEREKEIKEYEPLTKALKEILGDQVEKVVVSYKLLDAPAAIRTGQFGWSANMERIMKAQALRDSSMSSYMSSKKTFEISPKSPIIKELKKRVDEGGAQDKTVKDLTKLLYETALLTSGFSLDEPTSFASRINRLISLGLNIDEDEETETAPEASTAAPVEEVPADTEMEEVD

Consider `CC(O)CCNc1cc(-n2c3ccccc3c3c(-c4nc5ccc(F)cc5[nH]4)cccc32)ccc1C(N)=O` (racemic) [Example 37, 4-[4-(6-fluoro-1H-benzimidazol-2-yl)-9H-carbazol-9-yl]-2-[3(R,S)hydroxybutylamino)benzamide], for which the IC50 in test [1] and in test [2] was less than 1000 nM throughout.
As to `CC(CCO)Nc1cc(-n2c3ccccc3c3c(-c4nc5ccc(F)cc5[nH]4)cccc32)ccc1C(N)=O` (racemic) [Example 39], the IC50 in test [1] and in test [2] was less than 1000 nM each time.
For `CC(O)CNc1cc(-n2c3ccccc3c3c(-c4nc5ccc(F)cc5[nH]4)cccc32)ccc1C(N)=O` (racemic) [Example 40, 4-[4-(6-fluoro-1H-benzimidazol-2-yl)-9H-carbazol-9-yl]-2-(2(R,S)-hydroxypropylamino)benzamide], the IC50 in test [1] and in test [2] was less than 1000 nM each time.
Take `CC(CCO)Nc1cc(-n2c3ccccc3c3c(-c4cnc5ccccc5c4)cccc32)ccc1C(N)=O` (racemic) [Example 41, 2-[1-hydroxybutan-3(R,S)-ylamino]-4-[4-(quinolin-3-yl)-9H-carbazol-9-yl]benzamide]: the IC50 in test [1] and in test [2] was less than 1000 nM each time.
Turning to `NCCCC[C@@H](N)C(=O)O[C@H]1CC[C@H](Nc2cc(-n3c4ccccc4c4c(-c5nc6ccc(F)cc6[nH]5)cccc43)ccc2C(N)=O)CC1` (stereo in doubt) [Example 36, trifluoroacetate of the 4-trans-{2-carbamoyl-5-[4(6-fluoro-1H-benzimidazol-2-yl)-9H-carbazol-9-yl]phenylamino}cyclohexyl ester of (S)-2,6-diaminohexanoic acid], the IC50 in test [1] and in test [2] was less than 1000 nM each time.
For `NC(=O)c1ccc(-n2c3ccccc3c3c(-c4nc5ccc(F)cc5[nH]4)cccc32)cc1N[C@H]1CC[C@H](O)CC1` [Example 1, 4-[4-(6-fluoro-1H-benzimidazol-2-yl)-9H-carbazol-9-yl]-2-(4-trans-hydroxycyclohexylamino)benzamide], the IC50 in test [1] and in test [2] was less than 1000 nM each time.
Consider `NC(=O)c1ccc(-n2c3ccccc3c3c(-c4cnc5ccccc5c4)cccc32)cc1N[C@H]1CC[C@H](O)CC1` [Example 2, 2-(4-trans-hydroxycyclohexylamino)-4-[(4-quinolin-3-yl)-9H-carbazol-9-yl]benzamide], for which the IC50 in test [1] and in test [2] was less than 1000 nM in each case.
Regarding `CCN(CC)CCNc1cc(-n2c3ccccc3c3c(-c4nc5ccc(F)cc5[nH]4)cccc32)ccc1C(N)=O` [Example 3, 2-(2-diethylaminoethylamino)-4-[4-(6-fluoro-1H-benzimidazol-2-yl)-9H-carbazol-9-yl]benzamide], the IC50 in test [1] and in test [2] was less than 1000 nM in each case.
For `NC(=O)c1ccc(-n2c3ccccc3c3c(-c4nc5ccncc5[nH]4)cccc32)cc1N[C@H]1CC[C@H](O)CC1` [Example 4, 2-(4-trans-hydroxycyclohexylamino)-4-[4-(3H-imidazo[4,5-c]pyridin-2-yl)-9H-carbazol-9-yl]benzamide], the IC50 in test [1] and in test [2] was less than 1000 nM in each case.
As for `CC(=O)O[C@H]1CC[C@H](Nc2cc(-n3c4ccccc4c4c(-c5nc6ccc(F)cc6[nH]5)cccc43)ccc2C(N)=O)CC1` [Example 5, acetic acid 4-{2-carbamoyl-5-[4-(6-fluoro-1H-benzimidazol-2-yl)-9H-carbazol-9-yl]phenylamino}-trans-cyclohexyl ester], the IC50 in test [1] is 1000 to 10000 nM; in test [2] it was less than 1000 nM.
The like results for `NC(=O)c1ccc(-n2c3ccccc3c3c(-c4nc5ccc(F)cc5[nH]4)cccc32)cc1NC1CCCCC1` [Example 6, 2-cyclohexylamino-4-[4-(6-fluoro-1H-benzimidazol-2-yl)-9H-carbazol-9-yl]benzamide] were, in that order, 1000 to 10000 nM and less than 1000 nM.
On to `NC(=O)c1ccc(-n2c3ccccc3c3c(-c4nc5ccc(F)cc5[nH]4)cccc32)cc1NCCOCCO` [Example 7, 4-[4-(6-fluoro-1H-benzimidazol-2-yl)-9H-carbazol-9-yl]-2-[2-(2-hydroxyethoxy)ethylamino]benzamide], for which the IC50 in test [1] and in test [2] was less than 1000 nM each time.
With `NC(=O)c1ccc(-n2c3ccccc3c3c(-c4nc5ccc(F)cc5[nH]4)cccc32)cc1NCCCO` [Example 8, 4-[4-(6-fluoro-1H-benzimidazol-2-yl)-9H-carbazol-9-yl]-2-(3-hydroxypropylamino)benzamide], the IC50 in test [1] and in test [2] was less than 1000 nM each time.
In the case of `NC(=O)c1ccc(-n2c3ccccc3c3c(-c4nc5ccc(F)cc5[nH]4)cccc32)cc1N[C@H]1CC[C@@H](O)CC1` [Example 9, 4-[4-(6-fluoro-1H-benzimidazol-2-yl)-9H-carbazol-9-yl]-2-(4-cis-hydroxycyclohexylamino)benzamide], the IC50 in test [1] is 1000 to 10000 nM; in test [2], less than 1000 nM.
For `NC(=O)c1ccc(-n2c3ccccc3c3c(-c4nc5cc(F)ccc5[nH]4)cccc32)cc1N` [Example 10, 2-amino-4-[4-(6-fluoro-1H-benzimidazol-2-yl)-9H-carbazol-9-yl]benzamide], in that order: less than 1000 nM and 1000 to 10000 nM.
On to `NC(=O)c1ccc(-n2c3ccccc3c3c(-c4nc5ccc(F)cc5[nH]4)cccc32)cc1NCCN1CCCC1` [Example 11, 4-[4-(6-fluoro-1H-benzimidazol-2-yl)-9H-carbazol-9-yl]-2-(2-pyrrolidin-1-ylethylamino)benzamide], for which the IC50 in test [1] and in test [2] was less than 1000 nM each time.
As to `Nc1n[nH]c2cc(-n3c4ccccc4c4c(-c5nc6ccc(F)cc6[nH]5)cccc43)ccc12` [Example 12, 6-[4-(6-fluoro-1H-benzimidazol-2-yl)-9H-carbazol-9-yl]-1H-indazol-3-ylamine], the IC50 in test [1] and in test [2] was 1000 to 10000 nM each time.
As for `Nc1noc2cc(-n3c4ccccc4c4c(-c5nc6ccc(F)cc6[nH]5)cccc43)ccc12` [Example 13, 6-[4-(6-fluoro-1H-benzimidazol-2-yl)-9H-carbazol-9-yl]-1,2-benzisoxazol-3-ylamine], the IC50 in test [1] and in test [2] was 1000 to 10000 nM throughout.
For `NC(=O)c1ccc(-n2c3ccccc3c3c(-c4nc5ccc(F)cc5[nH]4)cccc32)cc1F` [Example 14, 2-fluoro-4-[4-(6-fluoro-1H-benzimidazol-2-yl)-9H-carbazol-9-yl]benzamide], the IC50 in test [1] was 1000 to 10000 nM; in test [2] it was less than 1000 nM.
As to `NC(=O)c1ccc(-n2c3ccccc3c3c(-c4cnc(N)nc4)cccc32)cc1NCCCO` [Example 56, 4-[4-(2-aminopyrimidin-5-yl)-9H-carbazol-9-yl]-2-[(3-hydroxypropyl)amino]benzamide hydrochloride], the IC50 in test [1] is less than 1000 nM.
The molecule `NC(=O)c1ccc(-n2c3ccccc3c3c(-c4cncc(O)c4)cccc32)cc1NCCCO` [Example 141, 2-[(3-hydroxypropyl)amino]-4-[4-(5-hydroxypyridin-3-yl)-9H-carbazol-9-yl]benzamide] showed an IC50 in test [2] of less than 1000 nM.
The same measure, in the same setting: to `NC(=O)c1cnc(-n2c3ccccc3c3c(-c4cnc5ccccc5c4)cccc32)cc1N[C@H]1CC[C@H](O)CC1` [Example 142, 2-[4-(quinolin-3-yl)-9H-carbazol-9-yl]-4-(4-trans-hydroxycyclohexylamino)pyridine-5-carboxamide] belongs less than 1000 nM.
